The results in this text go back to patent US20260159512A1, “BCAT2 INHIBITORS” (AGIOS PHARMACEUTICALS, INC., priority 2021, published 2026).

Usually IC50 stands for the concentration that gives 50% inhibition.

The target in experiment [1] is T1, BCAT2 (Homo sapiens, UniProt O15382).
T1 sequence (O15382 28-392): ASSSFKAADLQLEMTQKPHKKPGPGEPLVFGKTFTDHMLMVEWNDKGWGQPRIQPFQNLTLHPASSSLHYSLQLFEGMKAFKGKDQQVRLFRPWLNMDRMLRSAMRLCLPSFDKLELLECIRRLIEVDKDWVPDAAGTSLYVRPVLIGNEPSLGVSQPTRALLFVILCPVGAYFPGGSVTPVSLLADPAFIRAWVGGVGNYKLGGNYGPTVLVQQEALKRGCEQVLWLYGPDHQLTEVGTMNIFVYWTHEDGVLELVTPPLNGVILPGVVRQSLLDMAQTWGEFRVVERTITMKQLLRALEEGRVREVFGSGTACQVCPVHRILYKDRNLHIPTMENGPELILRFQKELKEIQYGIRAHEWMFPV
In words: BCAT2 in vitro enzyme inhibition assay (resazurin/diaphorase-coupled fluorescence). Also on record: key to BCAT2 Enzyme Inhibition: A: less than or equal to 0.100 μM; B: greater than 0.100 and less than or equal to 0.500 μM; C: greater than 0.500 and less than or equal to 1.000 μM; d: greater than 1.000 μM; E: no fit. Particulars: average where tested multiple times. The class given is biochemical. Put shortly:
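Coupled fluorescence readout: glutamate formed from L-leucine/α-ketoglutarate transamination drives GDH/NAD/diaphorase reduction of resazurin (Ex 540/Em 590). Human BCAT2 was first exposed 1 h at room temperature to compound, top final 100 μM in 3-fold, 10-point series; substrate reaction ran 1 h before SDS quench, in technical duplicate with DMSO max and enzyme-free min controls.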

For experiment [2], the target named is T1, BCAT2. In words: BCAT2 in vitro cell inhibition using engineered A549 cells (KMV cell assay, 13C6-KMV by LC-MS/MS). The note with it: average where tested multiple times. The class given is cell-based. Also on record: The result was an engineered A549 cell line that expressed endogenous BCAT2; endogenous in cells; host or cells: A549 cells with MUT and BCAT1 knocked out by CRISPR/CAS9; key to BCAT2 Cell Inhibition: A: less than or equal to 0.100 μM; B: greater than 0.100 and less than or equal to 0.500 μM; C: greater than 0.500 and less than or equal to 1.000 μM; d: greater than 1.000 μM; E: no fit.

The compound `CC(C)Cc1nc2cnc(N3CCC[C@@H]3C#N)cc2n1[C@@H]1CCC[C@H](NC(=O)c2ncc(Cl)s2)C1` [Example 310, 5-chloro-N-((1S,3R)-3-(6-((R)-2-cyanopyrrolidin-1-yl)-2-isobutyl-1H-imidazo[4,5-c]pyridin-1-yl)cyclohexyl)thiazole-2-carboxamide] yielded an IC50 in experiment [1] of over 1000 nM. Moreover, the “BCAT2 Cell Inhibition” value in experiment [2] is reported as “E”.

For the compound `CC(C)Cc1nc2cnc(N3CCC[C@H]3C(C)(C)O)cc2n1[C@@H]1CCC[C@H](NC(=O)c2ncc(Cl)s2)C1` [Example 193, 5-chloro-N-((1S,3R)-3-(6-((S)-2-(2-hydroxypropan-2-yl)pyrrolidin-1-yl)-2-isobutyl-1H-imidazo[4,5-c]pyridin-1-yl)cyclohexyl)thiazole-2-carboxamide], the IC50 in experiment [1] is over 1000 nM. Besides, the “BCAT2 Cell Inhibition” value in experiment [2] is “E”.

In turn, `CO[C@H]1C[C@H](NC(=O)c2ncc(Cl)s2)C[C@H](n2c(-c3ccccc3F)nc3cnc(-n4cncn4)cc32)C1` (stereo in doubt) [Example 415, 5-chloro-N-((1R,3S,5S)-3-(2-(2-fluorophenyl)-6-(1H-1,2,4-triazol-1-yl)-1H-imidazo[4,5-c]pyridin-1-yl)-5-methoxycyclohexyl)thiazole-2-carboxamide] came in with an IC50 in experiment [1] of over 1000 nM. For the same compound, in experiment [2], the “BCAT2 Cell Inhibition” value is “E”.

In turn, `CO[C@H]1C[C@@H](NC(=O)c2ncc(Cl)s2)C[C@@H](n2c(CC(C)C)nc3cnc(-n4nccn4)cc32)C1` (single isomer, unassigned) [Example 440] showed an IC50 in experiment [1] of 500 to 1000 nM. Moreover, the “BCAT2 Cell Inhibition” value in experiment [2] is on record as “E”.

Regarding `CC(C)Cc1nc2cnc(-c3cccc(F)n3)cc2n1[C@@H]1C[C@@H](O)C[C@H](NC(=O)c2ncc(Cl)s2)C1` (stereo in doubt) [Example 384, 5-chloro-N-((1R,3S,5S)-3-(6-(6-fluoropyridin-2-yl)-2-isobutyl-1H-imidazo[4,5-c]pyridin-1-yl)-5-hydroxycyclohexyl)thiazole-2-carboxamide], the 50% inhibitory concentration (IC50) in experiment [1] and in experiment [2] was over 1000 nM in each case.

For the compound `COC(=O)N[C@H](c1nc2cnc(-c3nc[nH]n3)cc2n1[C@@H]1CCC[C@H](NC(=O)c2ncc(Cl)s2)C1)C(C)C` [Example 370, methyl ((S)-1-(1-((1R,3S)-3-(5-chlorothiazole-2-carboxamido)cyclohexyl)-6-(1H-1,2,4-triazol-3-yl)-1H-imidazo[4,5-c]pyridin-2-yl)-2-methylpropyl)carbamate], the concentration for half-maximal inhibition (IC50) in experiment [1] was over 1000 nM. For the same compound, in experiment [2], the “BCAT2 Cell Inhibition” value was “E”.

For the compound `COC(=O)N1C[C@@H](NC(=O)c2ccc(Cl)s2)C[C@@H](n2c(-c3ccccc3F)nc3cnc(-c4nc[nH]n4)cc32)C1` [Example 463, methyl (3S,5R)-3-(5-chlorothiophene-2-carboxamido)-5-(2-(2-fluorophenyl)-6-(1H-1,2,4-triazol-3-yl)-1H-imidazo[4,5-c]pyridin-1-yl)piperidine-1-carboxylate], the IC50 was at most 100 nM in experiment [1] and 500 to 1000 nM in experiment [2].

On to `CC(C)(Cc1nc2cnc(-n3nccn3)cc2n1[C@@H]1CCC[C@H](NC(=O)c2ccc(Cl)s2)C1)C(=O)O` [Example 190, 3-(1-((1R,3S)-3-(5-chlorothiophene-2-carboxamido)cyclohexyl)-6-(2H-1,2,3-triazol-2-yl)-1H-imidazo[4,5-c]pyridin-2-yl)-2,2-dimethylpropanoic acid], for which the 50% inhibitory concentration (IC50) in experiment [1] was over 1000 nM. Besides, in experiment [2], the “BCAT2 Cell Inhibition” value is on record as “E”.

`CNC(=O)c1ccc2c(c1)nc(-c1ccccn1)n2C1CC(O)CC(NC(=O)c2ncc(C(F)F)s2)C1` (stereo not shown) [Example 294, 5-(difluoromethyl)-N-(3-hydroxy-5-(5-(methylcarbamoyl)-2-(pyridin-2-yl)-1H-benzo[d]imidazol-1-yl)cyclohexyl)thiazole-2-carboxamide] returned a half-inhibitory concentration (IC50) in experiment [1] of 500 to 1000 nM. Also, the “BCAT2 Cell Inhibition” value in experiment [2] is recorded as “E”.

Take `CC(C)(C)Cc1nc2cnc(-n3nccn3)cc2n1[C@H]1CCC[C@@H](NC(=O)c2ccc(Cl)s2)[C@@H]1O` [Example 388, 5-chloro-N-((1R,2S,3S)-2-hydroxy-3-(2-neopentyl-6-(2H-1,2,3-triazol-2-yl)-1H-imidazo[4,5-c]pyridin-1-yl)cyclohexyl)thiophene-2-carboxamide]: in experiment [1], the IC50 was over 1000 nM. In experiment [2], the “BCAT2 Cell Inhibition” value was “E”.

As for `CC(C)Cc1nc2cnc(N3CCC[C@@H]3C(N)=O)cc2n1[C@@H]1CCC[C@H](NC(=O)c2ncc(Cl)s2)C1` [Example 308, N-((1S,3R)-3-(6-((R)-2-carbamoylpyrrolidin-1-yl)-2-isobutyl-1H-imidazo[4,5-c]pyridin-1-yl)cyclohexyl)-5-chlorothiazole-2-carboxamide], the 50% inhibitory concentration (IC50) in experiment [1] was over 1000 nM. Moreover, in experiment [2], the “BCAT2 Cell Inhibition” value is given as “E”.

Take `CO[C@H]1C[C@H](NC(=O)c2ncc(Cl)s2)C[C@H](n2c(CC(C)C)nc3cnc(-c4nc[nH]n4)cc32)C1` (stereo in doubt) [Example 413, 5-chloro-N-((1R,3S,5S)-3-(2-isobutyl-6-(1H-1,2,4-triazol-3-yl)-1H-imidazo[4,5-c]pyridin-1-yl)-5-methoxycyclohexyl)thiazole-2-carboxamide]: the half-maximal inhibitory concentration (IC50) in experiment [1] was over 1000 nM. Besides, in experiment [2], the “BCAT2 Cell Inhibition” value is on record as “E”.

In the case of `O=C(N[C@H]1CCC[C@@H](n2c(-c3ccccc3F)nc3cnc(O[C@@H]4CCOC4)cc32)C1)c1ncc(Cl)s1` [Example 266, 5-chloro-N-((1S,3R)-3-(2-(2-fluorophenyl)-6-(((R)-tetrahydrofuran-3-yl)oxy)-1H-imidazo[4,5-c]pyridin-1-yl)cyclohexyl)thiazole-2-carboxamide], the 50% inhibitory concentration (IC50) in experiment [1] was in the range of 100 to 500 nM. The “BCAT2 Cell Inhibition” value in experiment [2] is reported as “E”.

As to `COc1cccc(F)c1-c1nc2cnc(-c3nc[nH]n3)cc2n1[C@H]1CCCC[C@@H](NC(=O)c2ccc(Cl)s2)[C@@H]1O` [Example 406, 5-chloro-N-((1R,2S,3S)-3-(2-(2-fluoro-6-methoxyphenyl)-6-(1H-1,2,4-triazol-3-yl)-1H-imidazo[4,5-c]pyridin-1-yl)-2-hydroxycycloheptyl)thiophene-2-carboxamide], the half-maximal inhibitory concentration (IC50) in experiment [1] fell in the range of 500 to 1000 nM. Besides, the “BCAT2 Cell Inhibition” value in experiment [2] was “E”.

`CN1C[C@@H](NC(=O)c2ccc(Cl)s2)C[C@@H](n2c(-c3ccccc3F)nc3cnc(-c4nc[nH]n4)cc32)C1` [Example 265, 5-chloro-N-((3S,5R)-5-(2-(2-fluorophenyl)-6-(1H-1,2,4-triazol-3-yl)-1H-imidazo[4,5-c]pyridin-1-yl)-1-methylpiperidin-3-yl)thiophene-2-carboxamide]: the IC50 was 100 to 500 nM in experiment [1] and over 1000 nM in experiment [2].

In experiment [1], `CC(C)Cc1nc2cnc(-c3nc[nH]n3)cc2n1[C@H]1C[C@H](O)C[C@@H](NC(=O)c2ncc(Cl)s2)C1` [Example 257, 5-chloro-N-((1S,3R,5R)-3-hydroxy-5-(2-isobutyl-6-(1H-1,2,4-triazol-3-yl)-1H-imidazo[4,5-c]pyridin-1-yl)cyclohexyl)thiazole-2-carboxamide] came in with an IC50 of 500 to 1000 nM. Besides, the “BCAT2 Cell Inhibition” value in experiment [2] is reported as “E”.

In turn, `CC(C)Cc1nc2cnc(-c3ccccn3)cc2n1[C@@H]1C[C@H](NC(=O)c2ncc(Cl)s2)CN(C)C1` [Example 263, 5-chloro-N-((3S,5R)-5-(2-isobutyl-6-(pyridin-2-yl)-1H-imidazo[4,5-c]pyridin-1-yl)-1-methylpiperidin-3-yl)thiazole-2-carboxamide] yielded an IC50 in experiment [1] of over 1000 nM. The “BCAT2 Cell Inhibition” value in experiment [2] is given as “E”.

In turn, `CNc1cc2c(cn1)nc(-c1ccccc1F)n2[C@H]1C[C@H](O)C[C@@H](NC(=O)c2ncc(Cl)s2)C1` [Example 273, 5-chloro-N-((1S,3R,5R)-3-(2-(2-fluorophenyl)-6-(methylamino)-1H-imidazo[4,5-c]pyridin-1-yl)-5-hydroxycyclohexyl)thiazole-2-carboxamide] gave an IC50 in experiment [1] of 500 to 1000 nM. In experiment [2], the “BCAT2 Cell Inhibition” value was “E”.

For `CO[C@@H]1[C@H](NC(=O)c2ncc(Cl)s2)CCC[C@@H]1n1c(-c2ccccc2F)nc2cnc(-c3nc[nH]n3)cc21` [Example 434, 5-chloro-N-((1R,2R,3S)-3-(2-(2-fluorophenyl)-6-(1H-1,2,4-triazol-3-yl)-1H-imidazo[4,5-c]pyridin-1-yl)-2-methoxycyclohexyl)thiazole-2-carboxamide], the “BCAT2 Enzyme Inhibition” value in experiment [1] was “E”. Also, in experiment [2], the “BCAT2 Cell Inhibition” value is recorded as “E”.

`O=C(N[C@@H]1C[C@@H](O)C[C@H](n2c(-c3ccccc3F)nc3cnc(F)cc32)C1)c1ncc(Cl)s1` [Example 275, 5-chloro-N-((1S,3R,5R)-3-(6-fluoro-2-(2-fluorophenyl)-1H-imidazo[4,5-c]pyridin-1-yl)-5-hydroxycyclohexyl)thiazole-2-carboxamide]: the IC50 in experiment [1] is over 1000 nM. For the same compound, in experiment [2], the “BCAT2 Cell Inhibition” value was “E”.
